US20250351832A1, “PHYTOCHEMICALS AS BIOPESTICIDES AND BIOSTIMULANTS” (KAY BEE BIO ORGANICS PVT. LTD., priority 2024, published 2025)
Where two headings read alike, the source gives them in different places.

Assays:
Mite [1] = details: Dose 1 ml/gm/lit.; 48 hrs
Mealy Bug [2] = assay: Green house effect on mealy bugs, cotton plants (Ex. 24); details: in vivo
Thrips [3] = assay: Greenhouse effect on thrips, cotton plants (Ex. 27); details: in vivo
Aphid [4] = details: 48 h, 1 mL or g/L
chili seedlings = assay: Response of chili plants, greenhouse growth (Ex. 31); format: in vivo; details: for CCI 5th Day / Plant Height (cm) 5th Day: 120 h; for CCI 10th Day / Plant Height (cm) 10th Day / Root Lenght % Increase over control: 240 h; for CCI % Increase over pre on 10th Day / Plant Height % Increase over pre on 10th Day / Root Lenght (cm) 10th Day / Stem Girth % Increase over pre on 10th Day: chili seedlings, dose 1 ml/gm/lit
Spodoptera litura [5] = assay: Controlled conditions, Spodoptera litura on cabbage plants (Ex. 26); details: in vivo
Thrips [6] = details: 48 h
Spodoptera litura [7] = details: 72 h, 1 mL or g/L
Thrips [8] = assay: whole plant or invertebrate; details: in Gossypium hirsutum, 48 h
Aphid [9] = tested on: Aphid
Aphid [10] = assay: whole plant or invertebrate; details: 48 h
[11] = cited from earlier work; for Phytotonic Effect: Table 13, effect on plants, descriptive
tomato seedlings = assay: Response of tomato plants, greenhouse growth (Ex. 30); format: in vivo; details: for CCI 5th Day / Plant Height 5th Day / Stem Girth 5th Day: 120 h; for CCI 10th Day / Plant Height 10th Day / Root Length % Increase over control / Stem Girth 10th Day: 240 h
Mite [12] = assay: Green house effect on mite, okra plants (Ex. 23); details: in vivo
Spodoptera litura [13] = details: Spodoptera litura 3rd instar on cabbage plants; dose 1 ml/gm/lit. spray; 72 hrs after application
Mite [14] = details: mite on okra plants, green house; dose 1 ml/gm/lit. spray; 48 hrs after application
Mealy Bug [15] = assay: In vitro bio-efficacy against mealy bug (Ex. 16); details: in vivo
Alternaria alternata = assay: In vitro poisoned food technique against fungus (Ex. 20); format: cell-based
Spodoptera litura [16] = assay: whole plant or invertebrate; details: 72 h
Helicoverpa armigera [17] = details: Helicoverpa armigera 3rd instar on chickpea plants, dose 1 ml/gm/lit. spray
Helicoverpa armigera [18] = details: Helicoverpa armigera on okra fruits, dose 1 ml/gm/lit., 72 Hrs.
Thrips [19] = details: 48 h, 1 mL or g/L
Helicoverpa armigera [20] = assay: In vitro bio-efficacy against Helicoverpa armigera (Ex. 17); details: in vivo
Helicoverpa armigera [21] = assay: Controlled conditions, Helicoverpa armigera on chickpea plants (Ex. 25); details: in vivo
[22] = read-out: % Corrected Mortality at 48 Hrs.
[23] = read-out: % Mortality at 48 Hrs.
[24] = Table 13, descriptive, no test described
[25] = tomato seedlings, 10th day, dose 1 ml/gm/lit
[26] = tomato seedlings, dose 1 ml/gm/lit, 10th day
[27] = read-out: % Corrected Mortality at 72 Hrs.
[28] = read-out: % Mortality at 72 Hrs.

Structure (SMILES): C=C(C)[C@H]1CC=C(C)CC1 [D-limonene]
- % Corrected Mortality at 48 Hrs. (Mite [1]): 45.95%
- % Mortality at 48 Hrs. (Mite [1]): 50.00%
- % Corrected Mortality at 48 Hrs. (Mealy Bug [2]): 38.89%
- % Mortality at 48 Hrs. (Mealy Bug [2]): 45.00%
- % Corrected Mortality at 48 Hrs. (Thrips [3]): 30.56%
- Total No. of dead insect at 48 Hrs. (Aphid [4]): 62.50
- CCI Pre (chili seedlings): 10.30
- Plant Height (cm) Pre (chili seedlings): 4.90 cm
- CCI 5th Day (chili seedlings): 13.60
- Plant Height (cm) 5th Day (chili seedlings): 6.97 cm
- CCI 10th Day (chili seedlings): 17.4
- Plant Height (cm) 10th Day (chili seedlings): 8.24 cm
- Root Lenght % Increase over control (chili seedlings): 61.51%
- CCI % Increase over pre on 10th Day (chili seedlings): 68.93%
- Plant Height % Increase over pre on 10th Day (chili seedlings): 68.16%
- Root Lenght (cm) 10th Day (chili seedlings): 4.42 cm
- Stem Girth % Increase over pre on 10th Day (chili seedlings): 60.00%
- % Corrected Mortality at 72 Hrs. (Spodoptera litura [5]): 23.68%
- Total No. of dead insect at 48 Hrs. (Thrips [6]): 37.50
- Total No. of dead insect at 72 Hrs. (Spodoptera litura [7]): 2.50
- mortality at 1 mL or g/L (Thrips [8]; [22]): 28.6%
- mortality at 1 mL or g/L (Thrips [8]; [23]): 37.5%
- Total No. of dead insect at 48 Hrs. (Aphid [9]): 6.25
- % Corrected Mortality at 48 Hrs. (Aphid [9]; Dose 1 ml/gm/lit., 48 hrs): 57.14%
- mortality at 1 mL or g/L (Aphid [10]; [22]): 55.9%
- mortality at 1 mL or g/L (Aphid [10]; [23]): 62.5%
- Acaricidal Activity - Mode of action [11, 24]: Ovicidal, repellent activity
- Antioxidant Activity - Mode of action [11, 24]: Possesses antioxidant
- Virucidal Activity - Mode of action [11, 24]: Exhibits viricidal activities
- Phytotonic Effect [11]: Exhibits plant
- CCI Pre (tomato seedlings): 11.59
- Plant Height Pre (tomato seedlings): 5.52 cm
- Stem Girth Pre (tomato seedlings): 1.30 mm
- CCI 5th Day (tomato seedlings): 13.66
- Plant Height 5th Day (tomato seedlings): 6.44 cm
- Stem Girth 5th Day (tomato seedlings): 1.98 mm
- CCI 10th Day (tomato seedlings): 15.54
- Plant Height 10th Day (tomato seedlings): 7.56 cm
- Root Length % Increase over control (tomato seedlings): 25.57%
- Stem Girth 10th Day (tomato seedlings): 2.21 mm
- Plant Height % Increase over pre on 10th Day (tomato seedlings; [25]): 36.96%
- Stem Girth % Increase over pre on 10th Day (tomato seedlings; [25]): 69.48%
- CCI % Increase over pre on 10th Day (tomato seedlings; [26]): 34.08%
- % Corrected Mortality at 48 Hrs. (Mite [12]): 50.00%
- % Mortality at 72 Hrs. (Spodoptera litura [13]): 27.50%
- % Mortality at 48 Hrs. (Mite [14]): 52.50%
- % Corrected Mortality at 48 Hrs. (Mealy Bug [15]): 39.47%
- % Mortality at 48 Hrs. (Mealy Bug [15]): 42.50%
- inhibition of growth at 1 mL or g/L (Alternaria alternata; […]): 46.6%
- mortality at 1 mL or g/L (Spodoptera litura [16]; [27]): 21.1%
- mortality at 1 mL or g/L (Spodoptera litura [16]; [28]): 25%
- % Mortality at 72 Hrs. (Helicoverpa armigera [17]; 72 hrs after application): 32.50%
- % Corrected Mortality at 72 Hrs. (Helicoverpa armigera [17]; 72 hrs, corrected for water control): 32.50%
- % Mortality at 72 Hrs. (Helicoverpa armigera [18]): 32.50%
- % Corrected Mortality at 72 Hrs. (Helicoverpa armigera [18]; corrected for water control): 32.50%
- Total No. of dead insect at 48 Hrs. (Thrips [19]): 3.75

Structure (SMILES): C=CCc1ccc(O)c(OC)c1 [Eugenol]
- % Corrected Mortality at 48 Hrs. (Mite [1]): 48.65%
- % Corrected Mortality at 48 Hrs. (Mealy Bug [2]): 72.22%
- % Mortality at 48 Hrs. (Mealy Bug [2]): 75.00%
- % Corrected Mortality at 48 Hrs. (Thrips [3]): 19.44%
- % Mortality at 48 Hrs. (Thrips [3]): 27.50%
- Total No. of dead insect at 48 Hrs. (Aphid [4]): 65.00
- % Corrected Mortality at 72 Hrs. (Helicoverpa armigera [20]): 47.50%
- % Mortality at 72 Hrs. (Helicoverpa armigera [20]): 47.50%
- CCI Pre (chili seedlings): 10.10
- Plant Height (cm) Pre (chili seedlings): 4.57 cm
- CCI 5th Day (chili seedlings): 13.40
- Plant Height (cm) 5th Day (chili seedlings): 6.53 cm
- CCI 10th Day (chili seedlings): 15.48
- Plant Height (cm) 10th Day (chili seedlings): 7.59 cm
- Root Lenght % Increase over control (chili seedlings): 52.07%
- CCI % Increase over pre on 10th Day (chili seedlings): 53.27%
- Plant Height % Increase over pre on 10th Day (chili seedlings): 66.08%
- Root Lenght (cm) 10th Day (chili seedlings): 4.16 cm
- Stem Girth % Increase over pre on 10th Day (chili seedlings): 54.59%
- % Corrected Mortality at 72 Hrs. (Spodoptera litura [5]): 60.53%
- % Mortality at 72 Hrs. (Spodoptera litura [5]): 62.50%
- Total No. of dead insect at 48 Hrs. (Thrips [6]): 27.50
- Total No. of dead insect at 72 Hrs. (Spodoptera litura [7]): 6.00
- mortality at 1 mL or g/L (Thrips [8]; [22]): 14.3%
- mortality at 1 mL or g/L (Thrips [8]; [23]): 25%
- Total No. of dead insect at 48 Hrs. (Aphid [9]): 6.00
- % Corrected Mortality at 48 Hrs. (Aphid [9]; Dose 1 ml/gm/lit., 48 hrs): 54.29%
- % Mortality at 48 Hrs. (Aphid [9]; Dose 1 ml/gm/lit., 48 hrs): 60.00%
- mortality at 1 mL or g/L (Aphid [10]; [22]): 58.8%
- mortality at 1 mL or g/L (Aphid [10]; [23]): 65%
- Acaricidal Activity - Mode of action [11, 24]: Inhibitory effects against
- Antifungal Activity - Mode of action [11, 24]: Inhibition of myceial growth
- Antioxidant Activity - Mode of action [11, 24]: Scavenge free radicals,
- Bactericidal Activity - Mode of action [11, 24]: Alters membrane permeability
- Insecticidal Activities - Mode of action [11, 24]: Growth inhibitory,
- Nematicidal Activity - Mode of action [11, 24]: Inhibited egg differentiation
- Virucidal Activity - Mode of action [11, 24]: Inactivated the cell-free
- Phytotonic Effect [11]: Regulating
- CCI Pre (tomato seedlings): 11.50
- Plant Height Pre (tomato seedlings): 5.65 cm
- Stem Girth Pre (tomato seedlings): 1.34 mm
- CCI 5th Day (tomato seedlings): 13.74
- Plant Height 5th Day (tomato seedlings): 6.66 cm
- Stem Girth 5th Day (tomato seedlings): 1.70 mm
- CCI 10th Day (tomato seedlings): 15.48
- Plant Height 10th Day (tomato seedlings): 7.56 cm
- Root Length % Increase over control (tomato seedlings): 31.25%
- Stem Girth 10th Day (tomato seedlings): 2.31 mm
- Plant Height % Increase over pre on 10th Day (tomato seedlings; [25]): 33.81%
- Stem Girth % Increase over pre on 10th Day (tomato seedlings; [25]): 72.90%
- CCI % Increase over pre on 10th Day (tomato seedlings; [26]): 34.61%
- Root Length (cm) 10th Day (tomato seedlings; [26]): 4.37 cm
- % Corrected Mortality at 48 Hrs. (Mite [12]): 50.00%
- % Mortality at 48 Hrs. (Mite [12]): 52.50%
- % Corrected Mortality at 48 Hrs. (Mealy Bug [15]): 63.16%
- % Mortality at 48 Hrs. (Mealy Bug [15]): 65.00%
- inhibition of growth at 1 mL or g/L (Alternaria alternata; poisoned food technique, PDA medium, dose 1 ml/gm/lit., after seven days, vs untreated control, read-out: % Inhibition of growth): 42.6%
- mortality at 1 mL or g/L (Spodoptera litura [16]; [27]): 57.9%
- mortality at 1 mL or g/L (Spodoptera litura [16]; [28]): 60%
- % Corrected Mortality at 72 Hrs. (Helicoverpa armigera [21]): 42.50%
- % Mortality at 72 Hrs. (Helicoverpa armigera [21]): 42.50%
- Total No. of dead insect at 48 Hrs. (Thrips [19]): 2.50
